{"source": "paper PMC8236845", "target": "binding of recombinant, trimeric SARS-CoV-2 spike protein to recombinant human ACE2 (Severe acute respiratory syndrome coronavirus 2, UniProt P0DTC2, K986P/R682G/R683S/R685S/V987P)", "experiment": "biochemical", "set-up": "species or system SARS-CoV-2 / human", "note": "pEC50: −log10 of the molar value. Where a name gives a salt, the structure may show the parent alone.", "data": [{"compound": "CN1C[C@H](C(=O)N[C@]2(C)O[C@@]3(O)[C@@H]4CCCN4C(=O)[C@H](Cc4ccccc4)N3C2=O)C[C@@H]2c3cccc4[nH]cc(c34)C[C@H]21", "note": "[Dihydroergotamine Mesylate]", "values": [{"measurement": "% Inhibition", "value": 94, "unit": "%"}]}, {"compound": "CO[C@H]1C(=O)[C@]2(C)[C@@H](OC)C[C@H]3OC[C@@]3(OC(C)=O)[C@H]2[C@H](OC(=O)c2ccccc2)[C@]2(O)C[C@H](OC(=O)[C@H](O)[C@@H](NC(=O)OC(C)(C)C)c3ccccc3)C(C)=C1C2(C)C", "note": "[Cabazitaxel]", "values": [{"measurement": "% Inhibition", "value": 86, "unit": "%"}]}, {"compound": "CN1CCc2nc(C(=O)N[C@@H]3C[C@@H](C(=O)N(C)C)CC[C@@H]3NC(=O)C(=O)Nc3ccc(Cl)cn3)sc2C1", "note": "[Edoxaban]", "values": [{"measurement": "% Inhibition", "value": 95, "unit": "%"}]}, {"compound": "CCN(CC)Cc1cc(Nc2ccnc3cc(Cl)ccc23)ccc1O", "note": "[Amodiaquine hydrochloride]", "values": [{"measurement": "% Inhibition", "value": 90, "unit": "%"}]}, {"compound": "Cefotiam Hexetil Hydrochloride", "values": [{"measurement": "% Inhibition", "value": 99, "unit": "%"}, {"measurement": "pEC50", "setting": "read-out: EC50 (corrected)", "value": 4.43}]}, {"compound": "CO[C@H]1C[C@@H]2CC[C@@H](C)[C@@](O)(O2)C(=O)C(=O)N2CCCC[C@H]2C(=O)O[C@H]([C@H](C)C[C@@H]2CC[C@@H](OCCO)[C@H](OC)C2)CC(=O)[C@H](C)/C=C(\\C)[C@@H](O)[C@@H](OC)C(=O)[C@H](C)C[C@H](C)/C=C/C=C/C=C/1C", "note": "[Everolimus (RAD001), Everolimus]", "values": [{"measurement": "% Inhibition", "value": 94, "unit": "%"}]}, {"compound": "Cn1cncc1[C@@](N)(c1ccc(Cl)cc1)c1ccc2c(c1)c(-c1cccc(Cl)c1)cc(=O)n2C", "note": "[Tipifarnib]", "values": [{"measurement": "% Inhibition", "value": 98, "unit": "%"}]}, {"compound": "CO[C@H]1C[C@@H]2CC[C@@H](C)[C@@](O)(O2)C(=O)C(=O)N2CCCC[C@H]2C(=O)O[C@H]([C@H](C)C[C@@H]2CC[C@H](n3cnnn3)[C@H](OC)C2)CC(=O)[C@H](C)/C=C(\\C)[C@@H](O)[C@@H](OC)C(=O)[C@H](C)C[C@H](C)/C=C/C=C/C=C/1C", "note": "[Zotarolimus(ABT-578), Zotarolimus]", "values": [{"measurement": "% Inhibition", "value": 96, "unit": "%"}]}, {"compound": "CCOC(=O)c1c(CSc2ccccc2)n(C)c2cc(Br)c(O)c(CN(C)C)c12.Cl", "note": "[Arbidol HCl]", "values": [{"measurement": "% Inhibition", "value": 95, "unit": "%"}]}, {"compound": "O=C(O)CCCC[C@@H]1SC[C@@H]2NC(=O)N[C@@H]21", "note": "[Biotin (Vitamin B7), Biotin]", "values": [{"measurement": "% Inhibition", "value": 91, "unit": "%"}]}, {"compound": "COc1cc(-c2coc3cc4c(c(OC)c3c2=O)OCO4)cc(OC)c1OC", "note": "[Irisflorentin]", "values": [{"measurement": "% Inhibition", "value": 97, "unit": "%"}]}, {"compound": "C[C@@H](Oc1cc(-c2cnn(C3CCNCC3)c2)cnc1N)c1c(Cl)ccc(F)c1Cl", "note": "[Crizotinib (PF-02341066), Crizotinib]", "values": [{"measurement": "% Inhibition, Screen", "value": 55, "unit": "%"}]}, {"compound": "C[C@@H](O[C@H]1OCCN(Cc2n[nH]c(=O)[nH]2)[C@H]1c1ccc(F)cc1)c1cc(C(F)(F)F)cc(C(F)(F)F)c1", "note": "[Aprepitant]", "values": [{"measurement": "% Inhibition", "value": 94, "unit": "%"}]}, {"compound": "Cc1cn(-c2cc(NC(=O)c3ccc(C)c(Nc4nccc(-c5cccnc5)n4)c3)cc(C(F)(F)F)c2)cn1", "note": "[Nilotinib AMN-107, Nilotinib]", "values": [{"measurement": "% Inhibition", "value": 99, "unit": "%"}]}, {"compound": "N#Cc1nn(-c2c(Cl)cc(C(F)(F)F)cc2Cl)c(N)c1[S+]([O-])C(F)(F)F", "note": "(stereo not shown) [Fipronil]", "values": [{"measurement": "% Inhibition", "value": 91, "unit": "%"}]}, {"compound": "O=C(O)c1cn(C2CC2)c2cc(N3CCNCC3)c(F)cc2c1=O", "note": "[Ciprofloxacin Hydrochloride Hydrate]", "values": [{"measurement": "% Inhibition", "value": 93, "unit": "%"}]}, {"compound": "Nc1nc(N)c2nc(-c3ccccc3)c(N)nc2n1", "note": "[Triamterene]", "values": [{"measurement": "% Inhibition", "value": 91, "unit": "%"}]}, {"compound": "CO[C@H]1C[C@H](O[C@@H]2/C(C)=C/C[C@@H]3C[C@@H](C[C@]4(CC[C@H](C)[C@@H](C5CCCCC5)O4)O3)OC(=O)[C@@H]3C=C(C)/C(=N/O)[C@H]4OC/C(=C\\C=C\\[C@@H]2C)[C@]43O)O[C@@H](C)[C@@H]1O", "note": "[Selamectin]", "values": [{"measurement": "% Inhibition", "value": 97, "unit": "%"}]}, {"compound": "CCOc1cc([C@@H](CS(C)(=O)=O)N2C(=O)c3cccc(NC(C)=O)c3C2=O)ccc1OC", "note": "[Apremilast (CC-10004), Apremilast]", "values": [{"measurement": "% Inhibition", "value": 96, "unit": "%"}]}, {"compound": "COc1cc([C@@H]2c3cc4c(cc3[C@@H](O[C@@H]3O[C@@H]5CO[C@@H](c6cccs6)O[C@H]5[C@H](O)[C@H]3O)[C@H]3COC(=O)[C@H]23)OCO4)cc(OC)c1O", "note": "[Teniposide]", "values": [{"measurement": "% Inhibition", "value": 97, "unit": "%"}]}, {"compound": "CN(C)c1ccc(C(=C2C=CC(=[N+](C)C)C=C2)c2ccc(N(C)C)cc2)cc1", "note": "[Crystal Violet]", "values": [{"measurement": "% Inhibition", "value": 98, "unit": "%"}]}]}
